Source: publication PMC4897634, “Design of an α-helical antimicrobial peptide with improved cell-selective and potent anti-biofilm activity” (Scientific Reports, 2016)
Where no end group is shown, it is not given here.

What was measured:
human erythrocytes = assay: Haemolytic activity; format: cell-based; settings: 37 °C, 30 min; for haemolysis rate: human erythrocytes, relative to 0.1% Triton X-100
Procedure: Haemolytic activity of the peptides was assayed by a standard procedure with slight modification. Fresh human erythrocytes were washed three times and resuspended at 1.25% haematocrit in PBS. Forty microlitres PBS-diluted peptide solution was added to a V-bottom 96-well plate (Corning Inc., Lowell, MA, USA), and 160 μl of erythrocytes was added. After incubation at 37 °C for 30 min, the samples were centrifuged, and the absorbance of the supernatant was measured at 450 nm using a multi-well microplate reader (SpectraMax M5; Molecular Devices, Sunnyvale, CA, USA) and compared with the 100% haemolysis caused by 0.1% Triton X-100. The percentage of haemolysis was calculated according to the equation (2): […]

[1] = test system: L929 mouse fibroblast cells; assay: Cytotoxicity, MTT assay; format: cell-based; settings: 1 hour
Procedure: The toxicity of the peptides against L929 mouse fibroblast cells was assessed by a standard MTT assay. L929 mouse fibroblast cells from ATCC (Manassas, VA, USA) were maintained in our laboratory. L929 cells were cultured in RPMI 1640 supplemented with 10% (v/v) FBS, 2 mM L-glutamine, 100 U/ml penicillin and […] streptomycin and maintained in a humidified incubator with 5% CO2 at 37 °C. L929 cells (5 × 10^3cells/well) were seeded in 96-well plates (Corning Inc., Lowell, MA, USA) and incubated overnight. Diluted peptides were added to L929 cells and incubated for 1 hour. Then, 20 μl of MTT (5 mg/ml) solution was added and incubated for 4 hours. The medium was removed, and 150 μl of DMSO was added to each well to dissolve the formazan crystals. The absorbance was measured at 490 nm on a microplate reader (SpectraMax M5; Molecular Devices, Sunnyvale, CA, USA). Cell viabilities were calculated by using the equation (3): […]

[2] = test system: Bacillus subtilis (1.3376); assay: Antimicrobial activity, broth microdilution MIC; format: cell-based; settings: modified CLSI broth microdilution, LB medium, 1 × 10^6 CFU/ml, 37 °C, 18 to 20 hours, absorbance 600 nm
Procedure: (§1) The antibacterial activities of the peptides against three Gram-negative bacteria and three Gram-positive bacteria strains were measured using a modified version of the Clinical Laboratory and Standards Institute (CLSI) broth microdilution method as described previously. Three Gram-negative bacteria, Escherichia coli (1.8732), Pseudomonas aeruginosa (1.2421), and Klebsiella pneumonia (1.1736), and three Gram-positive bacteria, Staphylococcus aureus (1.8721), Staphylococcus epidermidis (1.4260), and Bacillus subtilis (1.3376), were purchased from the China General Microbiological Culture Collection Centre (CGMCC). Briefly, bacteria were grown in liquid LB medium (tryptone, 10 g/L, yeast extract, 5 g/L and NaCl, 10 g/L) at 37 °C to mid-log phase, and the bacteria were diluted to 1 × 10^6 colony-forming units (CFU)/ml. The peptides were serially diluted with phosphate-buffered saline (PBS), and 50 μl diluted peptides were added to 50 μl of the bacterial suspension in 96-well plate (Corning Inc., Lowell, MA, USA). After incubation at 37 °C for 18 to 20 hours, the absorbance of each well was recorded using a multi-well microplate reader (SpectraMax M5; Molecular Devices, Sunnyvale, CA, USA) at 600 nm. The lowest concentration at which the peptide inhibited complete growth of the bacteria was taken as the minimal inhibitory concentration (MIC).

[3] = test system: Escherichia coli (1.8732); assay: Antimicrobial activity, broth microdilution MIC; format: cell-based; settings: modified CLSI broth microdilution, LB medium, 1 × 10^6 CFU/ml, 37 °C, 18 to 20 hours, absorbance 600 nm
Procedure: as §1

[4] = test system: Klebsiella pneumonia (1.1736); assay: Antimicrobial activity, broth microdilution MIC; format: cell-based; settings: modified CLSI broth microdilution, LB medium, 1 × 10^6 CFU/ml, 37 °C, 18 to 20 hours, absorbance 600 nm
Procedure: as §1

[5] = test system: Pseudomonas aeruginosa (1.2421); assay: Antimicrobial activity, broth microdilution MIC; format: cell-based; settings: modified CLSI broth microdilution, LB medium, 1 × 10^6 CFU/ml, 37 °C, 18 to 20 hours, absorbance 600 nm
Procedure: as §1

[6] = test system: Staphylococcus aureus (1.8721); assay: Antimicrobial activity, broth microdilution MIC; format: cell-based; settings: modified CLSI broth microdilution, LB medium, 1 × 10^6 CFU/ml, 37 °C, 18 to 20 hours, absorbance 600 nm
Procedure: as §1

[7] = test system: Staphylococcus epidermidis (1.4260); assay: Antimicrobial activity, broth microdilution MIC; format: cell-based; settings: modified CLSI broth microdilution, LB medium, 1 × 10^6 CFU/ml, 37 °C, 18 to 20 hours, absorbance 600 nm
Procedure: as §1

Gram-negative bacteria = format: cell-based, E. coli, P. aeruginosa, K. pneumoniae; settings: ratio of MHC to GM, Gram-negative bacteria
Procedure: (§2) The antimicrobial activities of the peptides, indicated by the minimum inhibitory concentrations (MIC), were determined against a range of Gram-negative (Table 3) and Gram-positive bacterial strains (Table 4). The geometric mean of MIC values (GM) from the three strains was calculated to provide an overall evaluation of antimicrobial activity.
(§3) The therapeutic index (TI) is defined as the ratio of the minimum haemolytic concentration (MHC) of peptides to the GM of peptides, and this value was used to evaluate cell selectivity of peptides towards the negatively charged region of bacterial cell membranes over the zwitterionic mammalian cell membranes.
as §1

Gram-positive bacteria = format: cell-based, S. aureus, S. epidermidis, B. subtilis; settings: ratio of MHC to GM, Gram-positive bacteria
Procedure: as §2, §3, §1

Acinetobacter baumannii = assay: MIC against biofilm-producing clinical isolate; format: cell-based; settings: biofilm-producing strain, broth microdilution as for the other strains
Procedure: The antibacterial activities of the peptides against three Gram-negative bacteria and three Gram-positive bacteria strains were measured using a modified version of the Clinical Laboratory and Standards Institute (CLSI) broth microdilution method as described previously. Three Gram-negative bacteria, Escherichia coli (1.8732), Pseudomonas aeruginosa (1.2421), and Klebsiella pneumonia (1.1736), and three Gram-positive bacteria, Staphylococcus aureus (1.8721), Staphylococcus epidermidis (1.4260), and Bacillus subtilis (1.3376), were purchased from the China General Microbiological Culture Collection Centre (CGMCC). […] After incubation at 37 °C for 18 to 20 hours, the absorbance of each well was recorded using a multi-well microplate reader (SpectraMax M5; Molecular Devices, Sunnyvale, CA, USA) at 600 nm. […]
Biofilm attachment assays against Acinetobacter baumannii were performed using a previously described method with some modifications. […] The MICs of AMPs against A. baumannii were evaluated as described above. […] The wells were allowed to dry, and the crystal violet-stained well was re-solubilized with 200 μl of 95% ethanol and shaken for 10 min followed by measurement of the absorbance at 595 nm on a microplate reader (SpectraMax M5; Molecular Devices, Sunnyvale, CA, USA). […]

| Substance | haemolysis rate (human erythrocytes; 100 μM peptide) [%] | viability of treated L929 cells ([1]; 50 μM peptide) [%] | MIC B. subtilis [2] [µM] | MIC E. coli [3] [µM] | MIC K. pneumoniae [4] [µM] | MIC P. aeruginosa [5] [µM] | MIC S. aureus [6] [µM] | MIC S. epidermidis [7] [µM] | TI, therapeutic index (Gram-negative bacteria) | TI, therapeutic index (Gram-positive bacteria) | MIC Acinetobacter baumannii (Acinetobacter baumannii) [µM] | haemolysis rate (human erythrocytes; 3.13 μM peptide) [%] | MHC, minimum haemolytic concentration (human erythrocytes; concentration causing 10% haemolysis of hRBC, 200 μM used when no haemolysis detectable at 100 μM) [µM] | viability of treated L929 cells ([1]; 6.25 μM peptide) |
| --- | --- | --- | --- | --- | --- | --- | --- | --- | --- | --- | --- | --- | --- | --- |
| RIGSILGRLAKGLPTLKSWIKNR-NH2 [A(A1R, A8R, I17K)] | 4.4 | 31.4 | 12.5 | 12.5 | 12.5 | 12.5 | 100 | 6.25 | 16 | 10.08 | 12.5 |  |  |  |
| AIGSILGALAKGLPTLISWIKNR-NH2 [AR-23, reference compound] |  |  | 3.13 | 25 | 12.5 | 12.5 | 6.25 | 3.13 | 0.2 | 0.79 | 12.5 | 37.9 | 3.13 | approximately 10% |
